Laboratory results taken from patent publication US9943504B2, “Arginine methyltransferase inhibitors and uses thereof” (Epizyme, Inc., priority 2013, dated 2018).

Molecular target: T1, human PRMT1 (Homo sapiens, UniProt Q99873)
T1 construct: GST-tagged PRMT1; made in house; host or cells: High Five insect cells (baculovirus)
Assay: PRMT1 Biochemical Assay
Settings: biochemical evaluation, peptide substrate
Source text: S-adenosylmethionine (SAM), S-adenosylhomocysteine (SAH), bicine, Tween20, dimethylsulfoxide (DMSO), bovine skin gelatin (BSG), and Tris(2-carboxyethyl)phosphine hydrochloride solution (TCEP) were purchased from Sigma-Aldrich at the highest level of purity possible. ^3H-SAM was purchase from American Radiolabeled Chemicals with a specific activity of 80 Ci/mmol. 384-well streptavidin Flashplates were purchased from PerkinElmer.
Peptide representative of human histone H4 residues 36-50 was synthesized with an N-terminal linker-affinity tag motif and a C-terminal amide cap by 21st Century Biochemicals. The peptide was purified by high-performance liquid chromatography (HPLC) to greater than 95% purity and confirmed by liquid chromatography mass spectrometry (LC-MS). The sequence was Biot-Ahx-[…]-amide (SEQ ID NO.: 1). […]
The assays were all performed in a buffer consisting of 20 mM Bicine (pH=7.6), 1 mM TCEP, 0.005% BSG, and 0.002% Tween 20, prepared on the day of use. […] The plates were then read in a PerkinElmer TopCount plate reader to measure the quantity of ^3H-labeled peptide bound to the Flashplate surface, measured as disintegrations per minute (dpm) or alternatively, referred to as counts per minute (cpm). […]

T1 sequence (Q99873 with tags, fused parts or gaps): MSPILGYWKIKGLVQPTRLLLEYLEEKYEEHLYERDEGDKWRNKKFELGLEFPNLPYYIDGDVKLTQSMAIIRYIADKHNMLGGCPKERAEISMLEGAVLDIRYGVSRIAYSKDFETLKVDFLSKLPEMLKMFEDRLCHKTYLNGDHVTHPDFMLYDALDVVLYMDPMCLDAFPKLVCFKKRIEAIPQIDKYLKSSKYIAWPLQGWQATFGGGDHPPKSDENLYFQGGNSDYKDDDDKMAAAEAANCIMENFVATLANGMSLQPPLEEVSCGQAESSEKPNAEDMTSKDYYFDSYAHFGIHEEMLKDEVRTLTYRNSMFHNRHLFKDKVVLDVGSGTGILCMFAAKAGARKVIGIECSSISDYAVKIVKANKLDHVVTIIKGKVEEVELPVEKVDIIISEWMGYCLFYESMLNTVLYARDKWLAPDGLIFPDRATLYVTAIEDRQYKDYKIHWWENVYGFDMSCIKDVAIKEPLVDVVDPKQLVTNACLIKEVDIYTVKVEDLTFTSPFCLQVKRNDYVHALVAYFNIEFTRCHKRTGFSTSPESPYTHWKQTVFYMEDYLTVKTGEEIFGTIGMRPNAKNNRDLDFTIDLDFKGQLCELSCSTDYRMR

CN(CCN)Cc1n[nH]c2cccc(OCc3ccccc3)c12 [Compound 1]
IC50: ≤ 100 nM
